Drawing on patent US12139488B2, “Pyrido[3,2-d]pyrimidine compounds uses thereof for treating a proliferative disease” (Universite de Montreal, priority 2021, dated 2024), this text covers IC50 and EC50 for three compounds.

Molecules are shown by their SMILES. Read-outs that look alike come from different tables or passages of the source.

The target of one test is ARAF (Homo sapiens (Human), UniProt P10398). As to the kind of experiment: ARAF kinase activity assay (AlphaLISA p-MEK 1/2 detection). It counts as biochemical. How it is done:
Compound preparation: solid samples of each substances in 1 dram vials were suspended in DMSO (Fisher Scientific) at a stock concentration of 20 mM. Stocks were kept at −20° C. and protected from light. If solubility of the compound at 20 mM appeared to be an issue, the initial concentration of the DMSO stock was changed to 10 mM or 5 mM.
In vitro enzymatic reactions were used for evaluating compounds intrinsic activity against BRAF, CRAF and ARAF. For BRAF and CRAF, 0.375 nM of purified GST-tagged kinases (cat #B4062-10 UG and cat #R1656-10 UG respectively from Millipore Sigma) were incubated with 75 nM of kinase-dead MEK1 substrate (cat #40075; BPS Bioscience) in the presence of 10 μM of Ultrapure ATP (cat #V9102; Promega; part V915A) with and without the test compound in a buffer containing 50 mM HEPES pH 7.5, 10 mM MgCl2, 1 mM EDTA, 0.01% Brij-35 and 2 mM DTT. Separate reactions were performed with the MEK1 substrate and ATP as a blank control. ARAF, kinase reactions were rigorously the same with the exception that kinase concentration was raised to 3.75 nM (cat #1768-0000-1; Reaction Biology).
For compound treatment, 5 μL/well of test substance solution are placed in a 384-well proxyplate (Perkin Elmer) and mixed with 2× concentrated kinase reactions. The dilution series is selected so that nine concentrations cover a range from 100 nM to 0.01 nM. […] The final concentration of DMSO in the assay is set at 0.05%.
ARAF kinase reactions were carried out for a total of 2 hours at 30° C. and then stopped by addition of EDTA at a final concentration of 40 mM. Reactions were then detected using the AlphaLISA® SureFire® Ultra™ p-MEK 1/2 (Ser218/222) (PerkinElmer) kit. Reactions were performed with 5 μL of kinase reaction according to the manufacturer's specifications in 384-well proxyplates (Perkin Elmer) followed by overnight incubation of the AlphaLISA® reactions at room temperature in a humidified chamber. After completion of the detection reactions, the signals were recorded on a Synergy Neo2 plate reader (Biotek) equipped with AlphaLISA® filters. The effect of each compound dilution on the pMEK signal generated by ARAF reactions was expressed in % inhibition and calculated as follows. An internal 100% inhibition control (average of luminescence in kinase reactions comprising kinase dead MEK1 substrate alone) was included in each plate to measure of pMEK background and was subtracted from each data point. The average of DMSO (vehicle) controls (set as 0% inhibition) was also established and used to calculate % inhibition: % inhibition=100*(1−((pMEK signalcompound)/(pMEK signalDMSO)))
IC50 values were obtained by plotting the kinase inhibition values and fitting the dose-activity curves using a log(agonist) versus response-variable slope (four parameters) function using either GraphPadPrism (V7.0) or Dotmatics Screening Ultra platform. Standards included in the ARAF kinase assay were Belvarafenib (MedChem Express cat #HY-109080; CAS #1446113-23-0), LXH254 (MedChem Express cat #HY-112089; CAS #1800398-38-2) and BGB283 (cat #HY-18957; CAS #1446090-79-4).
(In general: Bead proximity is the source of the signal in Alpha formats.)

The test system of the next test is IPC298 cells (NRAS-Q61L). As to the kind of experiment: Proliferation inhibition (CellTiter-Glo), IPC298. It counts as cell-based, human. The following applies: IPC298, 3 days, read-out: IPC298 Prolif. EC50. How it is done:
(§1) All cancer cell lines (A375, A101D, A2058, RKO, HT29 SK-MEL 30, IPC298, HepG2, HCT-116, Lovo, SWV620, SW480, NCI-H358, NCI-H2122, Calu-6, NCIH2087, NCIH1755, NCIH1666 and Mewo) were obtained from ATCC and cultured in RPMI-1640 medium (Gibco) supplemented with 5% heat inactivated fetal bovine serum (FBS, Wisent) at 37° C. under 5% CO2. Cells were maintained in T175 flasks (Greiner). They were passaged by removing the culture medium, washing once in 10 mL of room temperature Phosphate Buffered Saline (PBS; Wisent) and incubating at 37° C. with 2 mL of 0.05% Trypsin (Thermo-Fisher). Trypsin was then inactivated by adding complete growth medium and the cells were then replated in a T175 culture dish at the appropriate dilution. All cell lines were routinely tested for mycoplasma contamination. Tissue type and mutational status of each cell line can be found in Table B.
(§2) CellTiter-Glo® viability analysis was conducted on cells plated in 100 μL of complete RPMI-1640 growth medium in 96-well flat-bottomed white opaque plates (Greiner or Croning) at a density indicated in Table E (for each CCL, number of cells plated per well of a 96-well plate to perform the CellTiter-Glo® cell viability assay). The cell density in cells/cm^2 would correspond to cell number divided by the area of one well of a 96-well plate (0.32 cm^2). […]
(§3) After 3 days of incubation, the growth media were removed by aspiration and 60 μL of diluted CellTiter-Glo® reagent (10 μL CellTiter-Glo® reagent+50 μL of PBS) was added to each well. […] Luminescence signals were then acquired on a Synergy Neo2 plate reader (Biotek).
(§4) The effect of each compound dilution on the proliferation of cancer cell lines was expressed in % inhibition and calculated as follows. […]
(§5) The ability of each compound to inhibit proliferation was expressed as a EC50 value obtained by plotting the effect values for each data point of a dilution series and fitting the obtained curves using a log(agonist) versus response-variable slope (four parameters) function using GraphPadPrism (V7.0) or Dotmatics Screening Ultra platform.
On the technique in general: ATP-based viability assays read luminescence as a measure of living cells.

Test [1] concerns NCI-H358 cells (KRAS-G12C). As to the kind of experiment: Proliferation inhibition (CellTiter-Glo), NCI-H358. It counts as cell-based, human. Particulars: NCI-H358, 3 days, read-out: NCI-H358 Prolif. EC50. The method, then: as §1, §2, §3, §4, §5

Sequence of ARAF (P10398 whole entry): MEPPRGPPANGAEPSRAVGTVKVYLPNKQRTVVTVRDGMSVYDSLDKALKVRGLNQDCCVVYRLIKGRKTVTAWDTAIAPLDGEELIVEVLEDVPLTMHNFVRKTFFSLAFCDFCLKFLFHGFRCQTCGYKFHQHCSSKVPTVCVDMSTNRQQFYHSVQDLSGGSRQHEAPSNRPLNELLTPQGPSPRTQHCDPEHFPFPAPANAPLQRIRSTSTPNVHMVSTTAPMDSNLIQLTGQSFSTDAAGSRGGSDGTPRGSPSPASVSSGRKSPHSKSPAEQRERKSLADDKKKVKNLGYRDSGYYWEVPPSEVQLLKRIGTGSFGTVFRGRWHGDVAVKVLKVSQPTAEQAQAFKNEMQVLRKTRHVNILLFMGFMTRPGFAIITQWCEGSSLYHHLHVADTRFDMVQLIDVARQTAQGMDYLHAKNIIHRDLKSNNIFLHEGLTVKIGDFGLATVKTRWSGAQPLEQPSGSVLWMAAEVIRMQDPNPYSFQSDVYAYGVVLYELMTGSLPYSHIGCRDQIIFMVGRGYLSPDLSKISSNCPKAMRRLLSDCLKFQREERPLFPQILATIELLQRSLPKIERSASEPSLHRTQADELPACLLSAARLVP

One may read the IC50 as the point on the concentration scale where inhibition reaches its midpoint. One may read the EC50 as the midpoint of the concentration-response curve. Consider `CC1(O)CCN(c2cccc3c2ncn3-c2ccc3ncnc(Nc4c(F)ccc(NS(=O)(=O)c5cccc(Cl)c5Cl)c4F)c3n2)CC1` [Example 524], for which, on ARAF, the IC50 fell in the range of 1 to 10 nM. Besides, the EC50 (in the test on IPC298 cells (NRAS-Q61L); in test [1]) was under 30 nM each time.

For the compound `Nc1cccc2c1ncn2-c1ccc2ncnc(Nc3c(F)ccc(NS(=O)(=O)c4cccc(Cl)c4Cl)c3F)c2n1` [Example 99], the IC50 at ARAF was under 1 nM. Also, the EC50 (in the test on IPC298 cells (NRAS-Q61L); in test [1]) was under 30 nM throughout.

For the compound `Cc1ccc2c(Nc3cccc(Cl)c3F)nccc2c1NC(=O)c1csc2c(N)ncnc12` [Belvarafenib, reference compound], the IC50 at ARAF was over 10 nM. The EC50 with IPC298 cells (NRAS-Q61L) (Homo sapiens, IPC-298, 72 h) was under 30 nM; in test [1] (Homo sapiens, 72 h) it was 300 to 3000 nM.
